Source: patent publication US12180192B2, “Modulators of THR-β and methods of use thereof” (ALIGOS THERAPEUTICS, INC., priority 2019, dated 2024)

How the values were obtained:
[1] = test system: CPT1A gene expression in Huh-7 cells; test: Huh-7 differential gene expression, CPT1A RT-qPCR (Assay 3); type: cell-based; conditions: Homo sapiens, Huh-7, 24 h, Table 6, Huh-7 cells, CPT1A, 24 hr treatment; for EC50: read-out: Activity category Assay 3 EC50; for Emax: read-out: Activity category Assay 3 Emax
Protocol: Huh-7 Differential Gene Expression (Assay 3)
Fetal bovine serum (FBS) was incubated with washed resin (50 mg resin/mL FBS; resin weight is dry weight of resin prior to washing) for 5 hr at room temperature on a rotor. The FBS was separated from the resin via centrifugation and incubated with new, washed resin for 18 h at room temperature on a rotor.
Cell Culture and Drug Treatment
Huh-7 cells were cultured in DMEM (10-013-CM, Corning) supplemented with 10% FBS and 1% Pen-Strep at 37° C. under 5% C02. When 70-80% confluence was reached, the cells were removed by trypsinization. The medium was aspirated from the cell culture dish, the cell monolayer was washed with 1×PBS, and 0.05% trypsin, 0.53 mM EDTA (25-052-CV, Corning) solution was added to the dish. After 3 min incubation, the cells were detached completely by repeatedly pipetting solution onto the monolayer. Equal volume of DMEM supplemented with 10% rFBS and 1% Pen-Strep (TH-depleted DMEM) was added to the dish to inactivate the trypsin. The cell suspension was centrifuged at 350×g at room temperature for 3 min. The supernatant was aspirated out and the cell pellet was resuspended in TH-depleted DMEM. […] After 24 hr incubation, the media was replaced with treatment media. All compounds were serially diluted in DMSO and final concentrations were reached by dilution in TH-depleted DMEM (0.1% DMSO). The cells were incubated in treatment media for 24 hr. Treatments were performed in biological duplicates.
After 24 hr in treatment media, the cells were lysed directly on the culture plates and cDNA was produced using the TaqMan™ Fast Advanced Cells-to-CT™ Kit (A35374, Invitrogen) and following the manufacturer's protocol. RT-qPCR for CPT1A (Hs00912671_m1) and two housekeeping genes, ACTB (Hs01060665_g1) and TFG (Hs02832013_g1), was performed using TaqMan™ Fast Advanced Master Mix. RT-qPCR reactions were run on the qTOWER^3 84 G (Analytik Jena) in technical duplicates.
ΔRn values were obtained from the qPCRsoft384 1.0 software and CPT1A gene expression was quantified via the 2-ΔΔCt method. Dose-response curves were generated using GraphPad Prism 8 using four parameter logistic equation without top constraint to derive EC50 and Emax.

[2] = target: T1, human thyroid receptor beta ligand-binding domain (LBD) (Homo sapiens, UniProt P10828); test: TR-FRET thyroid receptor beta coactivator assay (THR biochemical assay, Assay 1); conditions: for EC50: THR-beta, TR-FRET coactivator assay, read-out: Activity category Assay 1 (EC50, THR-beta agonist); for Emax: Table 5, Assay 1, THRβ, read-out: Activity category Assay 1 THRβ (Emax)
T1 construct: purchased Invitrogen
T1 sequence (P10828 217-461 limits assumed): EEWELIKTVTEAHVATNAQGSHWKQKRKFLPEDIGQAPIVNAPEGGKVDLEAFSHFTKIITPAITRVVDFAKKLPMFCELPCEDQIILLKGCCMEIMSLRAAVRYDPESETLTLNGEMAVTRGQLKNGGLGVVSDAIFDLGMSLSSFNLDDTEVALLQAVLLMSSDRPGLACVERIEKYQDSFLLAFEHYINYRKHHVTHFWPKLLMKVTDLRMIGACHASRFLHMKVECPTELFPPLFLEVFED
Method in brief: (§1)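 Agonist-driven coactivator recruitment measured by TR-FRET: terbium anti-GST antibody (2 nM) bound to GST-LBD of TRβ or TRα (1 nM final, stated for β), with fluorescein SRC2-2 peptide at 200 nM. Compounds at 1% DMSO. Read after 1 h, room temperature, protected from light.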

[3] = target: T2, human thyroid receptor alpha ligand-binding domain (LBD) (Homo sapiens, UniProt P10827); test: TR-FRET thyroid receptor alpha coactivator assay (THR biochemical assay, Assay 1); conditions: for EC50: Table 4, THR-alpha, read-out: Activity category Assay 1 (EC50, THR-alpha agonist activity); for Emax: Table 5, THRα, read-out: Activity category Assay 1 THRα (Emax)
T2 construct: purchased Invitrogen
T2 sequence (P10827 163-410 isoform P10827-2 limits assumed, other chains not shown): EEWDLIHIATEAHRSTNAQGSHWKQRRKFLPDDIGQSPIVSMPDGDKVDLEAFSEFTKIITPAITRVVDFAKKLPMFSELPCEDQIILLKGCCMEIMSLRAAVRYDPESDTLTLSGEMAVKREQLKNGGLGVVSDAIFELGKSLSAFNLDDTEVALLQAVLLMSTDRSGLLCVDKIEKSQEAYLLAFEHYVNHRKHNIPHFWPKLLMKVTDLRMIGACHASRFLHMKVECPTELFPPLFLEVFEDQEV
Method in brief: as §1

| EC50 [1] | EC50 [2] | Emax [2] | EC50 [3] | Emax [3] | Compound | Emax [1] |
| --- | --- | --- | --- | --- | --- | --- |
| 100 to 1000 nM | < 50 nM | < 50% | > 25000 nM | < 50% | Nc1nn(-c2cc(Cl)c(Oc3n[nH]c(=O)cc3-c3ccc4ccccc4c3)c(Cl)c2)c(=O)[nH]c1=O [Compound 67-A, 6-amino-2-(3,5-dichloro-4-((4-(naphthalen-2-yl)-6-oxo-1,6-dihydropyridazin-3-yl)oxy)phenyl)-1,2,4-triazine-3,5(2H,4H)-dione] | < 50% |
| < 100 nM | < 50 nM | < 50% | 50 to 250 nM | < 50% | Cc1cccc(-c2cc(Oc3c(Cl)cc(-n4nc(N)c(=O)[nH]c4=O)cc3Cl)n[nH]c2=O)c1 [Compound 70, 6-Amino-2-(3,5-dichloro-4-((6-oxo-5-(m-tolyl)-1,6-dihydropyridazin-3-yl)oxy)phenyl)-1,2,4-triazine-3,5(2H,4H)-dione] | 50 to 75% |
| 100 to 1000 nM | 50 to 250 nM | < 50% | > 25000 nM | < 50% | Nc1nn(-c2cc(Cl)c(Oc3cc(-c4ccc5c(c4)CCCC5)c(=O)[nH]n3)c(Cl)c2)c(=O)[nH]c1=O [Compound 72, 6-Amino-2-(3,5-dichloro-4-((6-oxo-5-(5,6,7,8-tetrahydro-naphthalen-2-yl)-1,6-dihydro-pyridazin-3-yl)oxy)phenyl)-1,2,4-triazine-3,5(2H,4H)-dione] | > 75% |
| 100 to 1000 nM | < 50 nM | < 50% | 50 to 250 nM | < 50% | Nc1nn(-c2cc(Cl)c(Oc3n[nH]c(=O)cc3-c3ccc4c(c3)CCCC4)c(Cl)c2)c(=O)[nH]c1=O [Compound 72-A, 6-amino-2-(3,5-dichloro-4-[[6-oxo-4-(5,6,7,8-tetrahydronaphthalen-2-yl)-1H-pyridazin-3-yl]oxy]phenyl)-4H-1,2,4-triazine-3,5-dione] | > 75% |
| > 100 nM | < 50 nM | 50 to 75% | 50 to 250 nM | < 50% | CC(C)c1n[nH]c2nnc(Oc3c(Cl)cc(-n4nc(C#N)c(=O)[nH]c4=O)cc3Cl)cc12 [Compound 75A, 2-(3,5-Dichloro-4-((3-isopropyl-1H-pyrazolo[3,4-c]pyridazin-5-yl)oxy)phenyl)-3,5-dioxo-2,3,4,5-tetrahydro-1,2,4-triazine-6-carbonitrile] | > 75% |
| < 100 nM | < 50 nM | 50 to 75% | < 50 nM | 50 to 75% | Nc1nn(-c2cc(Cl)c(Oc3ccc4c(c3)C3(CCCC3)C(=O)N4)c(Cl)c2)c(=O)[nH]c1=O [Compound 83] | > 75% |
| 100 to 1000 nM | < 50 nM | < 50% | 250 to 1000 nM | < 50% | CC1(C)CC(c2cc(Oc3c(Cl)cc(-n4nc(N)c(=O)[nH]c4=O)cc3Cl)n[nH]c2=O)C1 [Compound 89, 6-Amino-2-(3,5-dichloro-4-((5-(3,3-dimethylcyclobutyl)-6-oxo-1,6-dihydropyridazin-3-yl)oxy)phenyl)-1,2,4-triazine-3,5(2H,4H)-dione] | > 75% |
| > 100 nM | < 50 nM | < 50% | 50 to 250 nM | < 50% | Cc1cc(-n2nc(C#N)c(=O)[nH]c2=O)cc(C)c1Cc1ccc2[nH]c(=O)cc(C(C)C)c2c1 [Compound 90, 2-(4-((4-Isopropyl-2-oxo-1,2-dihydroquinolin-6-yl)methyl)-3,5-dimethylphenyl)-3,5-dioxo-2,3,4,5-tetrahydro-1,2,4-triazine-6-carbonitrile] | 50 to 75% |
| < 100 nM | 50 to 250 nM | < 50% | 250 to 1000 nM | < 50% | Nc1nn(-c2cc(Cl)c(Oc3cc(C4CC5(CC5)C4)c(=O)[nH]n3)c(Cl)c2)c(=O)[nH]c1=O [Compound 93] | 50 to 75% |
| 100 to 1000 nM | 50 to 250 nM | < 50% | 250 to 1000 nM | < 50% | Nc1nn(-c2cc(Cl)c(Oc3cc(C4CC5(CCC5)C4)c(=O)[nH]n3)c(Cl)c2)c(=O)[nH]c1=O [Compound 94] | 50 to 75% |
| < 100 nM | 50 to 250 nM | < 50% | 250 to 1000 nM | < 50% | Nc1nn(-c2cc(Cl)c(Oc3cc(C45CCC(C4)C5)c(=O)[nH]n3)c(Cl)c2)c(=O)[nH]c1=O [Compound 101] | < 50% |
| 100 to 1000 nM | 50 to 250 nM | < 50% | 250 to 1000 nM | < 50% | Cc1ccc(-c2cc(Oc3c(Cl)cc(-n4nc(N)c(=O)[nH]c4=O)cc3Cl)n[nH]c2=O)cc1C [Compound 112] | > 75% |
| 100 to 1000 nM | 50 to 250 nM | < 50% | > 25000 nM | < 50% | Nc1nn(-c2cc(Cl)c(Oc3cc(-c4ccc5c(c4)CCCO5)c(=O)[nH]n3)c(Cl)c2)c(=O)[nH]c1=O [Compound 114] | 50 to 75% |
| > 100 nM | 50 to 250 nM | < 50% | > 25000 nM | < 50% | Nc1nn(-c2cc(Cl)c(Oc3n[nH]c(=O)cc3-c3ccc4c(c3)CCCO4)c(Cl)c2)c(=O)[nH]c1=O [Compound 115] | > 75% |
| 100 to 1000 nM | < 50 nM | < 50% | < 50 nM | 50 to 75% | CC(C)Nc1n[nH]c2ccc(Oc3c(Cl)cc(-n4nc(C#N)c(=O)[nH]c4=O)cc3Cl)cc12 [Compound 145, 2-(3,5-dichloro-4-((3-(isopropylamino)-1H-indazol-5-yl)oxy)phenyl)-3,5-dioxo-2,3,4,5-tetrahydro-1,2,4-triazine-6-carbonitrile] | > 75% |
| 100 to 1000 nM | < 50 nM | < 50% | 50 to 250 nM | < 50% | CC(C)c1cc(=O)[nH]c2ccc(Oc3c(Cl)cc(-n4nc(N)c(=O)[nH]c4=O)cc3Cl)cc12 [Compound 146, 6-amino-2-[3,5-dichloro-4-[(4-isopropyl-2-oxo-1H-quinolin-6-yl)oxy]phenyl]-1,2,4-triazine-3,5-dione] | > 75% |
| 100 to 1000 nM | < 50 nM | < 50% | < 50 nM | 50 to 75% | Cc1cc(-n2nc(C#N)c(=O)[nH]c2=O)cc(C)c1Cc1ccc2c(c1)C1(CC1)C(=O)N2 [Compound 148, 2-(3,5-dimethyl-4-((2′-oxospiro[cyclopropane-1,3′-indolin]-5′-yl)methyl)phenyl)-3,5-dioxo-2,3,4,5-tetrahydro-1,2,4-triazine-6-carbonitrile] | > 75% |
| < 100 nM | < 50 nM | 50 to 75% | < 50 nM | > 75% | Cc1cc(-n2nc(N)c(=O)[nH]c2=O)cc(C)c1Cc1ccc2c(c1)C1(CC1)C(=O)N2 [Compound 151, 6-Amino-2-(3,5-dimethyl-4-((2′-oxospiro[cyclopropane-1,3′-indolin]-5′-yl)methyl)phenyl)-1,2,4-triazine-3,5(2H,4H)-dione] | > 75% |
